The subject of the series is CCRIS mutagenicity, Ames/micronucleus/aberration tests. Kind of series: CCRIS mutagenicity studies.
Setting [1] is: Test System: AMES SALMONELLA TYPHIMURIUM, Strain/Indicator: TA98, Metabolic Activation: NONE, Method: STANDARD PLATE.
[2] abbreviates: Test System: AMES SALMONELLA TYPHIMURIUM, Strain/Indicator: TA100, Metabolic Activation: NONE, Method: STANDARD PLATE.
Where [3] appears, read: Test System: AMES SALMONELLA TYPHIMURIUM, Strain/Indicator: TA1535, Metabolic Activation: NONE, Method: STANDARD PLATE.
Setting [4] is: Test System: AMES SALMONELLA TYPHIMURIUM, Strain/Indicator: TA98, Metabolic Activation: NONE, Method: PREINCUBATION
Where [5] appears, read: Test System: AMES SALMONELLA TYPHIMURIUM, Strain/Indicator: TA100, Metabolic Activation: NONE, Method: PREINCUBATION
The mark [6] stands for this setting: Test System: AMES SALMONELLA TYPHIMURIUM, Strain/Indicator: TA1535, Metabolic Activation: NONE, Method: PREINCUBATION
[7] abbreviates: Test System: AMES SALMONELLA TYPHIMURIUM, Strain/Indicator: TA98, Metabolic Activation: RAT, LIVER, S-9, PHENOBARBITAL, Method: STANDARD PLATE.
Where [8] appears, read: Test System: AMES SALMONELLA TYPHIMURIUM, Strain/Indicator: TA100, Metabolic Activation: RAT, LIVER, S-9, PHENOBARBITAL, Method: STANDARD PLATE.
[9] abbreviates: Test System: AMES SALMONELLA TYPHIMURIUM, Strain/Indicator: TA1535, Metabolic Activation: RAT, LIVER, S-9, PHENOBARBITAL, Method: STANDARD PLATE.

Activity calls are given as the source filed them. How the calls were made is not given here.

With `C=CCCCCCCCCC`, the mutagenic call runs as follows: (Test System: AMES SALMONELLA TYPHIMURIUM, Strain/Indicator: TA98, Metabolic Activation: MOUSE, LIVER, S-9, Method: STANDARD PLATE) “inactive; negative”; under setting [1], “inactive; negative”; (Test System: AMES SALMONELLA TYPHIMURIUM, Strain/Indicator: TA100, Metabolic Activation: MOUSE, LIVER, S-9, Method: STANDARD PLATE) “inactive; negative”; under setting [2], “inactive; negative”; under setting [3], “inactive; negative”; (Test System: AMES SALMONELLA TYPHIMURIUM, Strain/Indicator: TA1538, Metabolic Activation: NONE, Method: STANDARD PLATE) “inactive; negative”.
Take `Nc1cccc(S(=O)(=O)O)c1`: the mutagenic call reads like this: (Test System: AMES SALMONELLA TYPHIMURIUM, Strain/Indicator: TA97, Metabolic Activation: HAMSTER, LIVER, S-9, AROCLOR 1254 (10 OR 30%), Method: PREINCUBATION) “inactive; negative”; (Test System: AMES SALMONELLA TYPHIMURIUM, Strain/Indicator: TA97, Metabolic Activation: NONE, Method: PREINCUBATION) “inactive; negative”; (Test System: AMES SALMONELLA TYPHIMURIUM, Strain/Indicator: TA97, Metabolic Activation: RAT, LIVER, S-9, AROCLOR 1254 (10 OR 30%), Method: PREINCUBATION) “inactive; negative”; (Test System: AMES SALMONELLA TYPHIMURIUM, Strain/Indicator: TA98, Metabolic Activation: HAMSTER, LIVER, S-9, AROCLOR 1254 (10 OR 30%), Method: PREINCUBATION) “inactive; negative”; under setting [4], “inactive; negative”; (Test System: AMES SALMONELLA TYPHIMURIUM, Strain/Indicator: TA98, Metabolic Activation: RAT, LIVER, S-9, AROCLOR 1254 (10 OR 30%), Method: PREINCUBATION) “inactive; negative”. Besides, the mutagenic call runs as follows: (Test System: AMES SALMONELLA TYPHIMURIUM, Strain/Indicator: TA98, Metabolic Activation: S-9, Method: PREINCUBATION) “inactive; negative”; (Test System: AMES SALMONELLA TYPHIMURIUM, Strain/Indicator: TA100, Metabolic Activation: HAMSTER, LIVER, S-9, AROCLOR 1254 (10 OR 30%), Method: PREINCUBATION) “inactive; negative”; under setting [5], “inactive; negative”; (Test System: AMES SALMONELLA TYPHIMURIUM, Strain/Indicator: TA100, Metabolic Activation: RAT, LIVER, S-9, AROCLOR 1254 (10 OR 30%), Method: PREINCUBATION) “inactive; negative”; (Test System: AMES SALMONELLA TYPHIMURIUM, Strain/Indicator: TA100, Metabolic Activation: S-9, Method: PREINCUBATION) “inactive; negative”; (Test System: AMES SALMONELLA TYPHIMURIUM, Strain/Indicator: TA1535, Metabolic Activation: HAMSTER, LIVER, S-9, AROCLOR 1254 (10 OR 30%), Method: PREINCUBATION) “inactive; negative”. Besides, the mutagenic call is “inactive; negative” under setting [6]; “inactive; negative” (Test System: AMES SALMONELLA TYPHIMURIUM, Strain/Indicator: TA1535, Metabolic Activation: RAT, LIVER, S-9, AROCLOR 1254 (10 OR 30%), Method: PREINCUBATION); “inactive; negative” (Test System: UDS RODENT HEPATOCYTES, Strain/Indicator: THY INCORP (NON-S-PHASE), Metabolic Activation: NONE, Method: AUTORADIOGRAPHY).
`COc1nc(N)nc2c1ncn2[C@H]1C[C@H](O)[C@@H](COP(=O)(O)OP(=O)(O)OP(=O)(O)O)O1`: the mutagenic call (Test System: CHINESE HAMSTER OVARY, Strain/Indicator: CHO-K1 (HGPRT), Metabolic Activation: NONE) is “inactive; negative”.
For the molecule `CC(O)CO` (configuration not stated), the mutagenic call is “inactive; negative” (Test System: AMES SALMONELLA TYPHIMURIUM, Strain/Indicator: TA98, Metabolic Activation: HAMSTER, LIVER, S-9, AROCLOR 1254, Method: PREINCUBATION); “inactive; negative” under setting [4]; “inactive; negative” (Test System: AMES SALMONELLA TYPHIMURIUM, Strain/Indicator: TA98, Metabolic Activation: RAT, LIVER, S-9, AROCLOR 1254, Method: PREINCUBATION); “inactive; negative” (Test System: AMES SALMONELLA TYPHIMURIUM, Strain/Indicator: TA100, Metabolic Activation: HAMSTER, LIVER, S-9, AROCLOR 1254, Method: PREINCUBATION); “inactive; negative” under setting [5]; “inactive; negative” (Test System: AMES SALMONELLA TYPHIMURIUM, Strain/Indicator: TA100, Metabolic Activation: RAT, LIVER, S-9, AROCLOR 1254, Method: PREINCUBATION). Besides, the mutagenic call runs as follows: (Test System: AMES SALMONELLA TYPHIMURIUM, Strain/Indicator: TA1535, Metabolic Activation: HAMSTER, LIVER, S-9, AROCLOR 1254, Method: PREINCUBATION) “inactive; negative”; under setting [6], “inactive; negative”; (Test System: AMES SALMONELLA TYPHIMURIUM, Strain/Indicator: TA1535, Metabolic Activation: RAT, LIVER, S-9, AROCLOR 1254, Method: PREINCUBATION) “inactive; negative”; (Test System: AMES SALMONELLA TYPHIMURIUM, Strain/Indicator: TA1537, Metabolic Activation: HAMSTER, LIVER, S-9, AROCLOR 1254, Method: PREINCUBATION) “inactive; negative”; (Test System: AMES SALMONELLA TYPHIMURIUM, Strain/Indicator: TA1537, Metabolic Activation: NONE, Method: PREINCUBATION) “inactive; negative”; (Test System: AMES SALMONELLA TYPHIMURIUM, Strain/Indicator: TA1537, Metabolic Activation: RAT, LIVER, S-9, AROCLOR 1254, Method: PREINCUBATION) “inactive; negative”.
For `O=[N+]([O-])c1cc2cccc3c4ccccc4c4cccc1c4c23`, the mutagenic call (Test System: AMES SALMONELLA TYPHIMURIUM, Strain/Indicator: TA98, Metabolic Activation: NONE', Method: STANDARD PLATE) is “active; positive” and the mutagenic call under setting [2] is “active; positive”.
Consider `C[n+]1ccc(-c2ccccn2)cc1`, for which the mutagenic call is “inactive; negative” (Test System: AMES SALMONELLA TYPHIMURIUM, Strain/Indicator: TA97, Metabolic Activation: RAT, LIVER, S-9, PHENOBARBITAL, Method: STANDARD PLATE); “active; positive” under setting [7]; “inactive; negative” under setting [8]; “inactive; negative” under setting [9]; “inactive; negative” (Test System: AMES SALMONELLA TYPHIMURIUM, Strain/Indicator: TA1537, Metabolic Activation: RAT, LIVER, S-9, PHENOBARBITAL, Method: STANDARD PLATE); “inactive; negative” (Test System: AMES SALMONELLA TYPHIMURIUM, Strain/Indicator: TA1538, Metabolic Activation: RAT, LIVER, S-9, PHENOBARBITAL, Method: STANDARD PLATE).
For the molecule `C[C@@H]1C[C@H]2[C@@H]3CCC4=CC(=O)C=C[C@]4(C)[C@@]3(F)[C@@H](O)C[C@]2(C)[C@@]1(O)C(=O)CO`, the mutagenic call was “active; positive at 10 and 100 ug/ml with 72 hr treatment” (End Point: IN VITRO CHROMOSOMAL ABERRATIONS, Test System: HUMAN PERIPHERAL LYMPHOCYTES, Metabolic Activation: NONE); “active; positive” (End Point: IN VIVO MICRONUCLEUS, Test System: BONE MARROW POLYCHROMATIC ERYTHROCYTES, Species: MOUSE, Strain/Sex: SWISS/MALE, Route: IP INJECTION (SINGLE DOSE)); “inactive; negative” (Test System: AMES SALMONELLA TYPHIMURIUM, Strain/Indicator: TA97A, Metabolic Activation: NONE, Method: STANDARD PLATE); “inactive; negative” (Test System: AMES SALMONELLA TYPHIMURIUM, Strain/Indicator: TA97A, Metabolic Activation: RAT, LIVER, S-9, PHENOBARBITAL, Method: STANDARD PLATE); “inactive; negative” under setting [1]; “inactive; negative” under setting [7]. Besides, the mutagenic call reads like this: under setting [2], “inactive; negative”; under setting [8], “inactive; negative”; under setting [3], “inactive; negative”; under setting [9], “inactive; negative”.

These data come from PubChem BioAssay AID1259407 (Chemical Carcinogenesis Research Information System (CCRIS), 2018).
